Each structure is given as a SMILES string. ≈ marks a conversion by molar mass, not a printed value. Where two headings read alike, the source gives them in different places.

The values below come from patent US9382288B2, “Derivatives of steroid benzylamines, having an antiparasitic antibacterial, antimycotic and/or antiviral action” (Justus-Liebig-Universitat Giessen, priority 2010, dated 2016).

One data set can be described thus: Cytotoxicity HeLa. The following applies: human, HeLa cells.
A further data set deals with L929. As to the kind of experiment: Antiproliferative activity L929. Type of data set: cell-based. The following applies: Mus musculus, read-out: IC50 [μg/ml] Antiproliferative activity L929.
The subject of data set [1] is P. falciparum strain 3D7-Netherlands. Nature of the data set: In vitro IC50, 3H-hypoxanthine incorporation, P. falciparum 3D7. The following applies: for IC50: Plasmodium falciparum, P. falciparum strain 3D7; for in vitro activity in words: compared with compound 1. Format: cell-based, Plasmodium falciparum.
Another data set has as its system K562. Nature of the data set: Antiproliferative activity K562. Format: cell-based. As to conditions: Homo sapiens, read-out: IC50 [μg/ml] Antiproliferative activity K562.
Data set [2] deals with Plasmodium berghei GFP MRA-865. Nature of the data set: Plasmodium berghei infection in the mouse model (in vivo). The following applies: ip 3 × 10 mg/kg.
The mark [3] stands for this setting: read-out: IC50 [ng/ml] P.f.(3D7).

Turning to `COc1ccc2c(c1)CCC1C2CC[C@]2(C)C[C@@H](NCc3ccccc3O)CC12` (stereo partly drawn) [Compound 3, 16β-(2-Hydroxyphenyl-methylamino)-3-methoxy-estra-1,3,5(10)-triene], the IC50 in the data set “Cytotoxicity HeLa” was determined as 4.4 µg/mL (≈ 11.2 µM); with L929, 1.9 µg/mL (≈ 4.85 µM); in data set [1] (read-out: IC50 [nM] P.f.(3D7)) it was 62 nM; in data set [1] (setting [3]), 24.5 ng/mL; in the data set on K562 it was 0.7 µg/mL (≈ 1.79 µM). Further, the “in vitro activity in words” value in data set [1] is on record as “comparable activity”.
With `COc1ccc2c(c1)CCC1C2CC[C@]2(C)C[C@H](NCc3ccccc3O)CC12` (stereo partly drawn) [Compound 4, 16α-(2-Hydroxyphenyl-methylamino)-3-methoxy-estra-1,3,5(10)-triene], the IC50 in the data set “Cytotoxicity HeLa” turned out to be 4.7 µg/mL (≈ 12 µM); with L929, 1.6 µg/mL (≈ 4.09 µM); in data set [1] (read-out: IC50 [nM] P.f.(3D7)) it was 41.5 nM; in data set [1] (setting [3]), 16.4 ng/mL; in the data set on K562, 1.3 µg/mL (≈ 3.32 µM). For the same compound, in data set [1], the “in vitro activity in words” value is recorded as “comparable activity”.
For the compound `COc1ccc2c(c1)CCC1C2CC[C@@]2(C)C1CC[C@H]2NCc1ccccc1OC` (stereo partly drawn) [Compound 5, 17α-(2-Methoxyphenyl-methylamino)-3-methoxy-estra-1,3,5(10)-triene], the IC50 in data set [1] (read-out: IC50 [nM] P.f.(3D7)) amounted to 879 nM; in data set [1] (setting [3]) it was 578 ng/mL.
Turning to `COc1ccc2c(c1)CCC1C2CC[C@@]2(C)C1CC[C@H]2NCc1cccc(O)c1` (stereo partly drawn) [Compound 6, 17α-(3-Hydroxyphenyl-methylamino)-3-methoxy-estra-1,3,5(10)-triene], the IC50 worked out at 440 nM in data set [1] (read-out: IC50 [nM] P.f.(3D7)) and 172 ng/mL in data set [1] (setting [3]).
The corresponding values for `COc1ccc2c(c1)CCC1C2CC[C@@]2(C)C1CC[C@H]2NCc1ccc(O)cc1` (stereo partly drawn) [Compound 7] are 115 nM and 45 ng/mL.
The corresponding values for `COc1ccc2c(c1)CCC1C2CC[C@@]2(C)C1CC[C@H]2NCc1c(O)ccc2ccccc12` (stereo partly drawn) [Compound 17, 17α-[(2-Hydroxynaphth-1-yl)-methylamino]-3-methoxy-estra-1,3,5(10)-triene] are 72.8 nM and 32.1 ng/mL.
The corresponding values for `COc1ccc2c(c1)CCC1C2CC[C@@]2(C)C1CC[C@@H]2NCc1c(O)ccc2ccccc12` (stereo partly drawn) [Compound 19, 17β-[(2-Hydroxynaphth-1-yl)-methylamino]-3-methoxy-estra-1,3,5(10)-triene hydroperchlorate] are 182 nM and 98.6 ng/mL.
For the compound `COc1ccc2c(c1)CCC1C2CC[C@@]2(C)C1CC[C@@H]2NCc1cccc(O)c1` (stereo partly drawn) [Compound 20, 17β-(3-Hydroxyphenyl-methylamino)-3-methoxy-estra-1,3,5(10)-triene], the figures for the IC50 in data set [1] (read-out: IC50 [nM] P.f.(3D7)) and in data set [1] (setting [3]) were 733 nM and 287 ng/mL, respectively.
The corresponding values for `CCN(CC)c1ccc(CN[C@H]2CCC3C4CCc5cc(OC)ccc5C4CC[C@@]32C)c(O)c1` (stereo partly drawn) [Compound 23, 17β-[4-(N,N-Diethylamino)-2-hydroxyphenyl-methylamino]-3-methoxy-estra-1,3,5(10)-triene] are 716 nM and 331 ng/mL.
Turning to `COc1ccc2c(c1)CC[C@@H]1[C@@H]2CC[C@]2(C)[C@@H](O)[C@H](N(C)c3cc4ccccc4cc3O)C[C@@H]12` [Compound 32, 16α-[(3-Hydroxy-naphth-2-yl)-methylamino]-17β-hydroxy-3-methoxy-estra-1,3,5(10)-triene], the IC50 in data set [1] (read-out: IC50 [nM] P.f.(3D7)) is 29.9 nM; in data set [1] (setting [3]) it was 13.7 ng/mL.
For the compound `COc1ccc2c(c1)CC[C@@H]1[C@@H]2CC[C@]2(C)[C@H](O)[C@H](N(C)c3cc4ccccc4cc3O)C[C@@H]12` [Compound 36, 16α-[(3-Hydroxy-naphth-2-yl)-methylamino]-17α-hydroxy-3-methoxy-estra-1,3,5(10)-triene], the IC50 is 42.1 nM in data set [1] (read-out: IC50 [nM] P.f.(3D7)) and 19.3 ng/mL in data set [1] (setting [3]).
The matching figures for `COc1ccc2c(c1)CCC1C2CC[C@@]2(C)C1C[C@H](NCc1ccccc1O)[C@@H]2O` (stereo partly drawn) [Compound 42, 16β-(2-Hydroxyphenyl-methylamino)-17β-hydroxy-3-methoxy-estra-1,3,5(10)-triene]: 227 nM and 91.3 ng/mL.
`COc1ccc2c(c1)CCC1C2CC[C@@]2(C)C1C[C@@H](NCc1ccccc1O)[C@@H]2O` (stereo partly drawn) [Compound 43, 16α-(2-Hydroxyphenyl-methylamino)-17β-hydroxy-3-methoxy-estra-1,3,5(10)-triene]: the IC50 in the data set “Cytotoxicity HeLa” was determined as 7.7 µg/mL (≈ 18.9 µM); in the data set with L929 it was 2 µg/mL (≈ 4.91 µM); in data set [1] (read-out: IC50 [nM] P.f.(3D7)), 58.5 nM; in data set [1] (setting [3]), 23.9 ng/mL; with K562, 1.2 µg/mL (≈ 2.94 µM).
On to `COc1ccc2c(c1)CCC1C2CC[C@@]2(C)C1C[C@H](NCc1ccccc1O)[C@H]2O` (stereo partly drawn) [Compound 44, 16β-(2-Hydroxyphenyl-methylamino)-17α-hydroxy-3-methoxy-estra-1,3,5(10)-triene], for which the IC50 in the data set “Cytotoxicity HeLa” worked out at 3.4 µg/mL (≈ 8.34 µM); with L929, 2.5 µg/mL (≈ 6.13 µM); in data set [1] (read-out: IC50 [nM] P.f.(3D7)), 676 nM; in data set [1] (setting [3]), 275 ng/mL; in the data set on K562, 0.85 µg/mL (≈ 2.09 µM).
With `COc1ccc2c(c1)CCC1C2CC[C@@]2(C)C1C[C@@H](NCc1ccccc1O)[C@H]2O` (stereo partly drawn) [Compound 45, 16α-(2-Hydroxyphenyl-methylamino)-17α-hydroxy-3-methoxy-estra-1,3,5(10)-triene], the IC50 in data set [1] (read-out: IC50 [nM] P.f.(3D7)) was determined as 101 nM; in data set [1] (setting [3]), 41 ng/mL.
Regarding `COc1ccc2c(c1)CCC1C2CC[C@]2(C)C1C[C@H](NCc1ccccc1O)[C@@H]2O` (stereo partly drawn) [Compound 47, 16β-(2-Hydroxyphenyl-methylamino)-17β-hydroxy-3-methoxy-13α-estra-1,3,5(10)-triene], the IC50 is 140 nM in data set [1] (read-out: IC50 [nM] P.f.(3D7)) and 57.3 ng/mL in data set [1] (setting [3]).
The corresponding values for `COc1ccc2c(c1)CCC1C2CC[C@]2(C)C1C[C@@H](NCc1ccccc1O)[C@@H]2O` (stereo partly drawn) [Compound 48, 16α-(2-Hydroxyphenyl-methylamino)-17β-hydroxy-3-methoxy-13α-estra-1,3,5(10)-triene] are 83.3 nM and 34 ng/mL.
With `COc1ccc2c(c1)CCC1C2CC[C@@]2(C)C1C[C@H](NCc1cc(C(C)(C)C)cc(C(C)(C)C)c1O)[C@H]2O` (stereo partly drawn) [Ref 1, 16β-(2-Hydroxy-3,5-di-tert-butylphenyl-methylamino)-17α-hydroxy-3-methoxy-estra-1,3,5(10)-triene, reference compound], the IC50 came to 1610 nM in data set [1] (read-out: IC50 [nM] P.f.(3D7)) and 836 ng/mL in data set [1] (setting [3]).
With `CCN(CC)CCCC(C)Nc1ccnc2cc(Cl)ccc12` (stereo not drawn) [chloroquine, reference compound], the “MSD chloroquine ip 3 × 10 mg/kg” value in data set [2] is on record as 13.6 days.
